# System: T1, laccase isozyme 3 (purified laccase from Ganoderma lucidum-CDBT1)
# T1 construct: native secreted enzyme purified from culture medium (ammonium sulfate, DEAE Sepharose); 43 kDa by SDS-PAGE
# Assay: ABTS oxidation at […] nm, Lineweaver-Burk
# Format: biochemical
# Settings: 0.1 M sodium acetate pH 5.0, room temperature (~25°C); ABTS 0.01 to 10 mM; co-substrate O2
structure (smiles),measurement,value
"CCn1c(=NN=c2sc3cc(S(=O)(=O)O)ccc3n2CC)sc2cc(S(=O)(=O)O)ccc21 [ABTS, 2,2′-azino-bis(3-ethylbenzothiazoline-6-sulfonic acid)]",Km,110 µM
